{"source": "patent US20150328245A1", "about": "“Agents for Eliminating Tumour-Initiating Cells” (priority 2012, published 2015)", "assay_type_in_all_cases": "cell-based", "key": {"HeLa": {"tested_on": "HeLa", "assay": "In vitro soft agar colony forming growth assay", "conditions": "soft agar, one week, read-out: IC 50", "procedure": "(§1) The Soft Agar Assay for Colony Formation is considered the most stringent assay for detecting malignant transformation of cells. In this assay the cells are cultured in medium with low percentage of agar.\n(§2) An exemplary procedure for the assay follows."}, "MCF-7 [1]": {"tested_on": "MCF-7", "assay": "In vitro soft agar colony forming growth assay", "conditions": "MCF-7, soft agar, one week", "procedure": "as §1, §2"}, "T47D [2]": {"tested_on": "T47D", "assay": "In vitro soft agar colony forming growth assay", "conditions": "one week", "procedure": "as §1, §2"}, "L929": {"tested_on": "L929", "assay": "In vitro soft agar colony forming growth assay", "conditions": "L929, soft agar, one week; read-out: IC 50", "procedure": "as §1, §2"}, "PC3 [3]": {"tested_on": "PC3", "assay": "In vitro soft agar colony forming growth assay", "conditions": "one week", "procedure": "as §1, §2"}, "DU145 [4]": {"tested_on": "DU145", "assay": "In vitro soft agar colony forming growth assay", "conditions": "one week", "procedure": "as §1, §2"}, "LNCaP [5]": {"tested_on": "LNCaP", "assay": "In vitro soft agar colony forming growth assay", "conditions": "one week", "procedure": "as §1, §2"}, "MCF-7 [6]": {"tested_on": "MCF-7", "assay": "In vitro colorimetric cell death assay (MTT)", "conditions": "MCF-7, MTT, 48 hours", "procedure": "(§3) It's an in vitro colorimetric assay for assessing cell viability where the cells are grown in Two-dimensional surface.\n(§4) An exemplary procedure for the assay follows. Cancer cells and normal cells were plated in a 96 well plate as per predetermined plating efficiency. The plate was incubated for 24 hours in a 5% CO2 atmosphere at 37 degrees Celsius, a range of concentrations of the compounds I-1, I-2 and I-3 as well as cisplatin (known chemotherapeutic agents) were added to the separate wells, the plate was incubated further for 48 hours in a 5% CO2 atmosphere, the plate was centrifuged twice at 3000 rpm for 3 minutes, the supernatant fluid was discarded, 100 uL of 0.5 mg/mL MTT solution was added and the plate was incubated for 4 hours in a 5% CO2 atmosphere at 37 degrees Celsius. The plate was then centrifuged twice at 3000 rpm for 3 minutes, supernatant, was aspirated very carefully, 200 uL DMSO was added to each well to solubilize MTT crystals and mixed well by shaking the plate, the plate was incubated for 10 minutes in a 5% CO2 atmosphere at 37 degrees Celsius, the plate placed on the shaker of an ELISA plate reader and the absorbance at 570 nm was measured, then the percentage of viable cells remaining was calculated by first subtracting the background absorbance then comparing to the absorbance of a non-drug-treated cell sample, and the results were plotted on a graph to determine the IC50 for the compounds and cisplatin."}, "T47D [7]": {"tested_on": "T47D", "assay": "In vitro colorimetric cell death assay (MTT)", "conditions": "48 hours", "procedure": "as §3, §4"}, "MDAMB231": {"tested_on": "MDAMB231", "assay": "In vitro colorimetric cell death assay (MTT)", "conditions": "48 hours", "procedure": "as §3, §4"}, "[8]": {"tested_on": "MCF10A (normal breast cell line)", "assay": "In vitro colorimetric cell death assay (MTT)", "conditions": "48 hours, read-out: IC 50", "procedure": "as §3, §4"}, "L 929": {"tested_on": "L 929", "assay": "In vitro colorimetric cell death assay (MTT)", "conditions": "L 929, MTT, 48 hours; read-out: IC 50", "procedure": "as §3, §4"}, "PC3 [9]": {"tested_on": "PC3", "assay": "In vitro colorimetric cell death assay (MTT)", "conditions": "48 hours", "procedure": "as §3, §4"}, "DU145 [10]": {"tested_on": "DU145", "assay": "In vitro colorimetric cell death assay (MTT)", "conditions": "DU145, MTT, 48 hours; read-out: IC 50", "procedure": "as §3, §4"}, "LNCaP [11]": {"tested_on": "LNCaP", "assay": "In vitro colorimetric cell death assay (MTT)", "conditions": "48 hours", "procedure": "as §3, §4"}, "[12]": {"tested_on": "breast cancer cells MCF-7", "assay": "In vitro 3D primary sphere forming stem cell assay", "procedure": "(§5) This assay measures the ability of cancer stem cells to form spheres in a serum free media where the spheres are in a suspended form. Through this assay we evaluated the potency of the compounds of the invention to kill cancer stem cells in comparison with the known chemotherapeutic agent Cisplatin.\n(§6) An exemplary procedure for the assay follows. Cells were grown in three dimensions on a plastic substrate, harvested in suspension in serum-free media, then the cells in the sample were trypsinized and a single cell suspension was formed by passing through a cell strainer. The cells were diluted according to the predetermined plating efficiency for the cell line being studied by suspending the cells in stem cell culture medium. 100 uL of this suspension was added into each well of a 96 well suspension plate, and the plate was incubated at 37 degrees Celsius in 5% CO2 atmosphere for 24 hours, then 2 uL of appropriate concentrations of the compounds of the invention and cisplatin were added into each respective well along with 100 uL of stem cell culture medium, and the plates were incubated at 37 degrees Celsius under 5% CO2 atmosphere for 72 hours. 2.5 uL of the compounds of the invention and cisplatin were added to each respective well along with 50 uL of stem cell culture medium and then the plates were incubated at 37 degrees Celsius under 5% CO2 atmosphere for 72 hours. 3 uL of appropriate concentrations of the compounds of the invention and cisplatin were added to each respective well along with 50 uL of stem cell culture medium and then the plates were incubated at 37 degrees Celsius under 5% CO2 atmosphere for 72 hours, then the spheres formed were observed under a microscope then counted and scored by size.\n(§7) Results of the in vitro 3D sphere forming stem cell assay are set forth in a tabular manner. The number in each box is the total number of spheres formed in the presence of either cisplatin or compound I-2 or compound I-3 at each drug concentration. GC refers to a growth control performed in the absence of drug or solvent (DMSO). GCD refers to a growth control performed in the absence of drug, but in the presence of DMSO."}, "breast cancer cells T47D": {"tested_on": "breast cancer cells T47D", "assay": "In vitro 3D primary sphere forming stem cell assay", "procedure": "as §5, §6, §7"}, "[13]": {"tested_on": "prostate cancer cells DU145", "assay": "In vitro 3D primary sphere forming stem cell assay", "procedure": "as §5, §6, §7"}, "[14]": {"tested_on": "prostate cancer cells PC3", "assay": "In vitro 3D primary sphere forming stem cell assay", "procedure": "as §5, §6, §7"}, "[15]": {"tested_on": "prostate cancer cells LNCaP", "assay": "In vitro 3D primary sphere forming stem cell assay", "procedure": "as §5, §6, §7"}, "[16]": {"tested_on": "breast cancer cells MDA MB 231", "assay": "In vitro 3D primary sphere forming stem cell assay", "procedure": "as §5, §6, §7"}}, "note": "“And” between values parts separate entries of the source, which are not always exact repeats. Identical values can stand only once.", "data": [{"compound": "N.N.[Cl][Pt][Cl]", "note": "[Cisplatin, cisplatin, reference compound]", "values": [{"measurement": "IC50", "setting": "HeLa", "value": 39.4, "unit": "µM"}, {"measurement": "IC50", "setting": "MCF-7 [1]", "value": 37.1, "unit": "µM"}, {"measurement": "IC50", "setting": "T47D [2]", "value": 51.3, "unit": "µM"}, {"measurement": "IC50", "setting": "L929", "value": 8.7, "unit": "µM"}, {"measurement": "IC50", "setting": "PC3 [3]", "value": 40.1, "unit": "µM"}, {"measurement": "IC50", "setting": "DU145 [4]", "value": 56.2, "unit": "µM"}, {"measurement": "IC50", "setting": "LNCaP [5]", "value": 64.6, "unit": "µM"}, {"measurement": "IC50", "setting": "MCF-7 [6]", "value": 4.75, "unit": "µM"}, {"measurement": "IC50", "setting": "T47D [7]", "value": 51.3, "unit": "µM"}, {"measurement": "IC50", "setting": "MDAMB231", "value": 82.3, "unit": "µM"}, {"measurement": "IC50", "setting": "[8]", "value": 36.3, "unit": "µM"}, {"measurement": "IC50", "setting": "L 929", "value": 46.7, "unit": "µM"}, {"measurement": "IC50", "setting": "PC3 [9]", "value": 40.1, "unit": "µM"}, {"measurement": "IC50", "setting": "DU145 [10]", "value": 56.2, "unit": "µM"}, {"measurement": "IC50", "setting": "LNCaP [11]", "value": 64.6, "unit": "µM"}, {"measurement": "# of 3D Primary Spheres Formed of Cells MCF-7 (±SD)", "setting": "[12]; final conc. 0.125 μM", "value": "76(±5)"}, {"measurement": "# of 3D Primary Spheres Formed of Cells MCF-7 (±SD)", "setting": "[12]; final conc. 1.25 μM", "value": "77(±5)"}, {"measurement": "# of 3D Primary Spheres Formed of Cells MCF-7 (±SD)", "setting": "[12]; final conc. 12.5 μM", "value": "68(±7)"}, {"measurement": "# of 3D Primary Spheres Formed of Cells MCF-7 (±SD)", "setting": "[12]; final conc. 125 μM", "value": "61(±7)"}, {"measurement": "# of 3D Primary Spheres Formed of Cells MCF-7 (±SD)", "setting": "[12]; final conc. 1250 μM", "value": "37(±8)"}, {"measurement": "# of 3D Primary Spheres Formed of Cells T47D (±SD)", "setting": "breast cancer cells T47D; final conc. 0.125 μM", "value": "105(±10)"}, {"measurement": "# of 3D Primary Spheres Formed of Cells T47D (±SD)", "setting": "breast cancer cells T47D; final conc. 1.25 μM", "value": "100(±7)"}, {"measurement": "# of 3D Primary Spheres Formed of Cells T47D (±SD)", "setting": "breast cancer cells T47D; final conc. 12.5 μM", "value": "76(±25)"}, {"measurement": "# of 3D Primary Spheres Formed of Cells T47D (±SD)", "setting": "breast cancer cells T47D; final conc. 125 μM", "value": "51(±5)"}, {"measurement": "# of 3D Primary Spheres Formed of Cells T47D (±SD)", "setting": "breast cancer cells T47D; final conc. 1250 μM", "value": "0(±0)"}, {"measurement": "# of 3D Primary Spheres Formed of Cells DU145 (±SD)", "setting": "[13]; final conc. 0.125 μM", "value": "84(±4)"}, {"measurement": "# of 3D Primary Spheres Formed of Cells DU145 (±SD)", "setting": "[13]; final conc. 1.25 μM", "value": "70(±7)"}, {"measurement": "# of 3D Primary Spheres Formed of Cells DU145 (±SD)", "setting": "[13]; final conc. 12.5 μM", "value": "48(±6)"}, {"measurement": "# of 3D Primary Spheres Formed of Cells DU145 (±SD)", "setting": "[13]; final conc. 125 μM", "value": "35(±4)"}, {"measurement": "# of 3D Primary Spheres Formed of Cells DU145 (±SD)", "setting": "[13]; final conc. 1250 μM", "value": "11(±3)"}, {"measurement": "# of 3D Primary Spheres Formed of Cells PC3 (±SD)", "setting": "[14]; final conc. 0.125 μM", "value": "125(±7)"}, {"measurement": "# of 3D Primary Spheres Formed of Cells PC3 (±SD)", "setting": "[14]; final conc. 1.25 μM", "value": "109(±12)"}, {"measurement": "# of 3D Primary Spheres Formed of Cells PC3 (±SD)", "setting": "[14]; final conc. 12.5 μM", "value": "80(±6)"}, {"measurement": "# of 3D Primary Spheres Formed of Cells PC3 (±SD)", "setting": "[14]; final conc. 125 μM", "value": "67(±5)"}, {"measurement": "# of 3D Primary Spheres Formed of Cells PC3 (±SD)", "setting": "[14]; final conc. 1250 μM", "value": "55(±5)"}, {"measurement": "# of 3D Primary Spheres Formed of Cells LNCaP (±SD)", "setting": "[15]; final conc. 0.125 μM", "value": "142(±12)"}, {"measurement": "# of 3D Primary Spheres Formed of Cells LNCaP (±SD)", "setting": "[15]; final conc. 1.25 μM", "value": "144(±8)"}, {"measurement": "# of 3D Primary Spheres Formed of Cells LNCaP (±SD)", "setting": "[15]; final conc. 12.5 μM", "value": "108(±10)"}, {"measurement": "# of 3D Primary Spheres Formed of Cells LNCaP (±SD)", "setting": "[15]; final conc. 125 μM", "value": "54(±7)"}, {"measurement": "# of 3D Primary Spheres Formed of Cells LNCaP (±SD)", "setting": "[15]; final conc. 1250 μM", "value": "9(±2)"}, {"measurement": "# of 3D Primary Spheres Formed of Cells MDA MB231 (±SD)", "setting": "[16]; final conc. 0.125 μM", "value": "124(±7) and 87(±5)"}, {"measurement": "# of 3D Primary Spheres Formed of Cells MDA MB231 (±SD)", "setting": "[16]; final conc. 1.25 μM", "value": "113(±11) and 79(±2)"}, {"measurement": "# of 3D Primary Spheres Formed of Cells MDA MB231 (±SD)", "setting": "[16]; final conc. 12.5 μM", "value": "112(±18) and 78(±5)"}]}]}
